The text below walks through data of patent US20220323385A1, “PHARMACEUTICAL COMPOSITION FOR AORTIC ANEURYSM PROPHYLAXIS AND PROCESSED FOOD” (priority 2019, published 2022).

The test system of this assay is abdominal aortic aneurysm. Kind of assay: rat abdominal aortic aneurysm induction model (catheter inserted in abdominal aorta and ligated, high-fat feed). Format: in vivo, SD-male rats. The settings on record: for Occurrence not confirmed (abdominal aortic aneurysm) / Occurrence confirmed (abdominal aortic aneurysm): number of rats; for Rupture rate (%) of abdominal aortic aneurysm: rats with observed abdominal aortic aneurysms; for Rupture rate (%) of abdominal aortic aneurysm / Frequency of occurrence (%) (Table 4, Rupture rate of abdominal aortic aneurysm): control group 28.6%; for survival rate (%): Example 2, FIG. 1; for diameter of the aorta in the abdominal aortic aneurysm induction part: Example 2, FIG. 2, control group about 4 mm; for Occurrence not confirmed (Table 4, Rupture rate of abdominal aortic aneurysm): rupture not observed; for Frequency of occurrence (%) (Table 4, Rupture rate of abdominal aortic aneurysm): rupture rate in rats with observed abdominal aortic aneurysms. Here is the method: SD-male rats of 4 weeks old (70 g to 90 g) were used. Eighteen rats and eight rats were prepared as a control group and a medium chain fatty acid administration group, respectively.
Upon arrival, all rats were preliminarily fed normal feed without additional supplements for one week. Then, the medium chain fatty acid administration group was fed normal feed and forcibly administered with high-content neutral fats (decanoic acid occupied 98% of constituent fatty acids) in an amount of 1,145 mg/kg body-weight/day. The control group was fed normal feed and forcibly administered with water in an amount of 1,145 mg/kg body-weight/day.
In this test, the medium chain fatty acid was fed in the form of tricaprin. Tricaprin is a substance in which decanoic acid (C10), a linear saturated fatty acid having 10 carbon atoms, is bonded to glycerol.
From the second week after the arrival, all rats were fed high-fat feed. Then, the medium chain fatty acid administration group was forcibly administered with the high-content neutral fats in an amount of 1,145 mg/kg body-weight/day. Furthermore, the control group was forcibly administered with water in an amount of 1,145 mg/kg body-weight/day.
Three weeks after the arrival, an abdominal aortic aneurysm induction treatment was performed. In the abdominal aortic aneurysm induction treatment, a catheter is inserted in the rat abdominal aorta and the inserted catheter is ligated with the abdominal aorta. The treatment was performed according to the method disclosed in Patent Literature 3.
After that, for the next four weeks, the control group had been fed the high-fat feed and forcibly administered with water in an amount of 1,145 mg/kg body-weight/day. Furthermore, the medium chain fatty acid administration group had been fed the high-fat feed and forcibly administered with the high-content neutral fats. Then, four weeks after the abdominal aortic aneurysm induction treatment, the rats were euthanized and dissected.
Note that the abdominal aortic aneurysm was determined to have occurred if the blood vessel at the site where the abdominal aortic aneurysm induction treatment was performed dilated to twice or more its original thickness.
Next, test results obtained by using tricaprin (an ester of three decanoic acids and glycerol) and tricaprylin (an ester of three octanoic acids of C8 and glycerol) as the medium chain fatty acid is shown. The animal model preparation method is the same as that in Example 1. A group in which tricaprin (C10) was given is referred to as a tricaprin administration group and a group in which tricaprylin (C8) was given is referred to as a tricaprylin administration group.
Twenty-three, eleven, and eighteen model animals were prepared as a control group, the tricaprylin administration group, and the tricaprin administration group, respectively.
The horizontal axis indicates the number of days (day) from Day 0 when the abdominal aortic aneurysm induction treatment was performed, and the vertical axis indicates the survival rate (%). The survival rate declined on Day 17 in the control, while the survival rate remained 100% until Day 26 in the tricaprylin administration group. […] The tricaprin administration group maintained the 100% survival rate during the test period.
Referring to FIG. 2, the horizontal axis indicates which measurements are from the normal blood vessel and which are from the blood vessel at the abdominal aortic aneurysm induction part; the vertical axis indicates the diameter (mm) of the aorta. The normal blood vessel refers to the normal aorta at the upper and lower sides of the part in which the abdominal aortic aneurysm was induced.

[1] abbreviates: Example 1, number of rats among rats with observed abdominal aortic aneurysms.
Setting [2] is: Example 2, number of rats among rats with observed abdominal aortic aneurysms.
Setting [3] is: Example 2, 11 rats tricaprylin group, 18 rats tricaprin group.

Consider `CCCCCCCCCC(=O)OCC(COC(=O)CCCCCCCCC)OC(=O)CCCCCCCCC` [Tricaprin], for which the “diameter of the aorta in the abdominal aortic aneurysm induction part” value is listed as “about 2.2 mm”. Also, under “Example 1, 1,145 mg/kg body-weight/day, four weeks after induction treatment, control group 38.9%”, the “Frequency of occurrence (%) of abdominal aortic aneurysm” value is given as 12.5%. Moreover, under setting [1], the “Rapture confirmed (abdominal aortic aneurysm)” value is 0 and the “Rapture not confirmed (abdominal aortic aneurysm)” value is 1. Further, for the setting “Example 1, 8 rats in group, 1,145 mg/kg body-weight/day forcibly administered, four weeks after induction treatment”, the “Occurrence not confirmed (abdominal aortic aneurysm)” value is reported as 7. Further, for the setting “Example 1, 8 rats in group, vessel dilated to twice or more its original thickness, 1,145 mg/kg body-weight/day”, the “Occurrence confirmed (abdominal aortic aneurysm)” value was 1. For the same compound, the “Rupture rate (%) of abdominal aortic aneurysm” value (Example 1, listed as Medium chain fatty acid) is 0%. Further, the “Rupture rate (%) of abdominal aortic aneurysm” value (Example 1, listed as medium chain fatty acid) amounted to 0.0%. Moreover, the “survival rate (%)” value (during the test period) worked out at 100%. In addition, the “Frequency of occurrence (%) of abdominal aortic aneurysm” value (Example 2, control group 30.4%) is 5.6%. In addition, under setting [2], the “Occurrence confirmed (Table 4, Rupture rate of abdominal aortic aneurysm)” value is 0 and the “Occurrence not confirmed (Table 4, Rupture rate of abdominal aortic aneurysm)” value was 1. Further, under setting [3], the “Occurrence confirmed (abdominal aortic aneurysm)” value is reported as 1 and the “Occurrence not confirmed (abdominal aortic aneurysm)” value was determined as 17. For the same compound, the “Frequency of occurrence (%) (Table 4, Rupture rate of abdominal aortic aneurysm)” value (Example 2) was determined as 0%. In addition, under “Example 2, listed as tricaprin”, the “Frequency of occurrence (%) (Table 4, Rupture rate of abdominal aortic aneurysm)” value came out at 0.0%.
In the case of `CCCCCCCC(=O)OCC(COC(=O)CCCCCCC)OC(=O)CCCCCCC` [Tricaprylin], the “diameter of the aorta in the abdominal aortic aneurysm induction part” value is on record as “about 3.5 mm”. Besides, for the setting “until Day 26 after induction treatment, control declined on Day 17”, the “survival rate (%)” value was 100%. For the same compound, the “Frequency of occurrence (%) of abdominal aortic aneurysm” value (Example 2, control group 30.4%) was found to be 27.3%. Under setting [2], the “Occurrence confirmed (Table 4, Rupture rate of abdominal aortic aneurysm)” value was determined as 1 and the “Occurrence not confirmed (Table 4, Rupture rate of abdominal aortic aneurysm)” value is listed as 2. Further, under setting [3], the “Occurrence confirmed (abdominal aortic aneurysm)” value was 3 and the “Occurrence not confirmed (abdominal aortic aneurysm)” value amounted to 8. Moreover, the “Frequency of occurrence (%) (Table 4, Rupture rate of abdominal aortic aneurysm)” value (Example 2) was determined as 33.3%.
